The source of these data is patent US9278922B2 (ABBVIE INC., priority 2009, dated 2016).

In the test the test system is HCV 1b-Con-1 replicon. In words: HCV 1b-Con-1 replicon assay (luciferase reporter gene, HuH-7 cells). It is filed as cell-based, Hepatitis C virus (HCV) genotype 1b-Con1. To be noted: Hepatitis C virus, Huh-7, luciferase reporter gene activity in the replicon, in the presence of 5% FBS.
The EC50 is the concentration needed to bring the measured effect to its halfway point. Turning to `COC(=O)N[C@H](C(=O)N1CCC[C@H]1c1nc2ccc(CN(Cc3ccc4nc([C@@H]5CCCN5C(=O)[C@@H](NC(=O)OC)C(C)(C)O)[nH]c4c3)c3ccccc3)cc2[nH]1)C(C)(C)O` [Example 34, methyl [(1S)-2-hydroxy-1-{[(2S)-2-(6-{[({2-[(2S)-1-{(2S)-3-hydroxy-2-[(methoxycarbonyl)amino]-3-methylbutanoyl}pyrrolidin-2-yl]-1H-benzimidazol-6-yl}methyl)(phenyl)amino]methyl}-1H-benzimidazol-2-yl)pyrrolidin-1-yl]carbonyl}-2-methylpropyl]carbamate], the EC50 is less than 1 nM. Then `CCN[C@@H](C(=O)N1CCC[C@H]1C(=O)Nc1ccc(CN(Cc2ccc(NC(=O)[C@@H]3CCCN3C(=O)[C@H](NCC)c3ccccc3)cc2)c2ccc(F)cc2)cc1)c1ccccc1` [Example 131, (2S,2′S)-N,N′-{[(4-fluorophenyl)imino]bis(methanediylbenzene-4,1-diyl)}bis{1-[(2R)-2-(ethylamino)-2-phenylacetyl]pyrrolidine-2-carboxamide}], with less than 1 nM; and `COC(=O)N[C@H](C)C(=O)N1CCC[C@H]1C(=O)Nc1ccc(CN(Cc2ccc(NC(=O)[C@@H]3CCCN3C(=O)[C@@H](C)NC(=O)OC)cc2)c2ccc(F)cc2)cc1` [Example 16], with 10 to 100 nM.

Turning to `CCC[C@H](NC(=O)OC)C(=O)N1CCC[C@H]1C(=O)Nc1ccc(CN(Cc2ccc(NC(=O)[C@@H]3CCCN3C(=O)[C@H](CCC)NC(=O)OC)cc2)c2ccccc2)cc1` [Example 46, dimethyl [(phenylimino)bis{methanediylbenzene-4,1-diylcarbamoyl(2S)pyrrolidine-2,1-diyl[(2S)-1-oxopentane-1,2-diyl]}]biscarbamate], the EC50 lay within 1 to 10 nM.

For `COC(=O)N[C@H](C(=O)N1CCC[C@H]1C(=O)Nc1cccc(CN(Cc2cccc(NC(=O)[C@@H]3CCCN3C(=O)[C@@H](NC(=O)OC)C(C)(C)C)c2)c2ccc(F)cc2)c1)C(C)(C)C` [Example 143, dimethyl ([(4-fluorophenyl)imino]bis{methanediylbenzene-3,1-diylcarbamoyl(2S)pyrrolidine-2,1-diyl[(2S)-3,3-dimethyl-1-oxobutane-1,2-diyl]})biscarbamate], the 50% effective concentration (EC50) is less than 1 nM.

Regarding `COC(=O)N[C@H](C(=O)N1CCC[C@H]1C(=O)Nc1ccc(CN(Cc2ccc(NC(=O)[C@@H]3CCCN3C(=O)[C@@H](c3ccccc3)N(C)C)cc2)c2ccccc2)cc1)C(C)(C)C` [Example 10, Methyl (S)-1-((S)-2-(4-(((4-((S)-1-((R)-2-(dimethylamino)-2-phenylacetyl)pyrrolidine-2-carboxamido)benzyl)(phenyl)amino)methyl)phenylcarbamoyl)pyrrolidin-1-yl)-3,3-dimethyl-1-oxobutan-2-ylcarbamate], the EC50 is less than 1 nM.

Take `COC(=O)N[C@H](C(=O)N1CCC[C@H]1C(=O)Nc1ccc(CN(Cc2ccc(NC(=O)[C@@H]3CCCN3C(=O)[C@@H](NC(=O)OC)[C@H]3CCOC3)cc2)c2ccc(F)cc2)cc1)[C@H]1CCOC1` [Example 86, dimethyl {[(4-fluorophenyl)imino]bis[methanediylbenzene-4,1-diylcarbamoyl(2 S)pyrrolidine-2,1-diyl{(1S)-2-oxo-1-[(3R)-tetrahydrofuran-3-yl]ethane-2,1-diyl}]}biscarbamate]: the EC50 was less than 1 nM. Consider `O=C(Nc1ccc(CN(Cc2ccc(NC(=O)[C@@H]3CCCN3C(=O)OCc3ccccc3)cc2)c2ccccc2)cc1)C1CCCN1C(=O)OCc1ccccc1` (stereo partly drawn) [Example 4, (2S,2′S)-benzyl 2,2′-(4,4′-(phenylazanediyl)bis(methylene)bis(4,1-phenylene)bis(azanediyl))bis(oxomethylene)dipyrrolidine-1-carboxylate], for which the EC50 lay within 10 to 100 nM. As for `O=C([C@@H](c1ccccc1)N1CCCC1)N1CCC[C@H]1c1nc2cc(CN(Cc3ccc4[nH]c([C@@H]5CCCN5C(=O)[C@@H](c5ccccc5)N5CCCC5)nc4c3)c3ccccc3)ccc2[nH]1` [Example 66, N,N-bis[(2-{(2S)-1-[(2R)-2-phenyl-2-pyrrolidin-1-ylacetyl]pyrrolidin-2-yl}-1H-benzimidazol-5-yl)methyl]aniline], the half-maximal effective concentration (EC50) is less than 1 nM. For the compound `O=C(Nc1ccc(CN(Cc2ccc(NC(=O)[C@@H]3CCCN3C(=O)[C@@H](c3ccccc3)N3CCCCC3)cc2)c2ccc(F)cc2)cc1)[C@@H]1CCCN1C(=O)[C@@H](c1ccccc1)N1CCCCC1` [Example 92, (2S,2′S)-N,N′-{[(4-fluorophenyl)imino]bis(methanediylbenzene-4,1-diyl)}bis{1-[(2R)-2-phenyl-2-piperidin-1-ylacetyl]pyrrolidine-2-carboxamide}], the EC50 was less than 1 nM. For the compound `COC(=O)N[C@H](C(=O)N1CCC[C@H]1c1nc2cc(CN(Cc3ccc4[nH]c([C@@H]5CCCN5C(=O)[C@@H](NC(=O)OC)[C@H]5CCOC5)nc4c3)c3ccccc3)ccc2[nH]1)[C@H]1CCOC1` [Example 78, dimethyl {(phenylimino)bis[methanediyl-1H-benzimidazole-5,2-diyl(2S)pyrrolidine-2,1-diyl{(1S)-2-oxo-1-[(3R)-tetrahydrofuran-3-yl]ethane-2,1-diyl}]}biscarbamate], the EC50 was less than 1 nM. Consider `COC(=O)N[C@@H](C(=O)N1CCC[C@H]1C(=O)Nc1ccc(CN(Cc2ccc(NC(=O)[C@@H]3CCCN3C(=O)[C@H](NC(=O)OC)c3ccccc3)cc2)c2ccccc2)cc1)c1ccccc1` [Example 3], for which the EC50 is less than 1 nM. The same measure for `COC(=O)N[C@H](C(=O)N1CCC[C@H]1C(=O)Nc1cc(CN(Cc2ccc(OC)c(NC(=O)[C@@H]3CCCN3C(=O)[C@@H](NC(=O)OC)C(C)(C)C)c2)c2ccc(F)cc2)ccc1OC)C(C)(C)C` [Example 147, dimethyl ([(4-fluorophenyl)imino]bis{methanediyl(6-methoxybenzene-3,1-diyl)carbamoyl(2S)pyrrolidine-2,1-diyl[(2S)-3,3-dimethyl-1-oxobutane-1,2-diyl]})biscarbamate]: 100 to 250 nM; for `O=C(Nc1ccc(CN(Cc2ccc(NC(=O)[C@@H]3CCCN3C(=O)C(c3ccccc3)N3CC[C@@H](F)C3)cc2)c2ccc(F)cc2)cc1)[C@@H]1CCCN1C(=O)C(c1ccccc1)N1CC[C@@H](F)C1` (stereo partly drawn) [Example 116, (2S,2′S)-N,N′-{[(4-fluorophenyl)imino]bis(methanediylbenzene-4,1-diyl)}bis(1-{[(3R)-3-fluoropyrrolidin-1-yl](phenyl)acetyl}pyrrolidine-2-carboxamide)]: less than 1 nM; for `COC(=O)N[C@H](C(=O)N1CCC[C@H]1C(=O)Nc1ccc(CN(Cc2ccc(NC(=O)[C@@H]3CCCN3C(=O)[C@@H](NC(=O)OC)C(C)(C)OC)cc2)c2ccccc2)cc1)C(C)(C)OC` [Example 52, dimethyl [(phenylimino)bis{methanediylbenzene-4,1-diylcarbamoyl(2S)pyrrolidine-2,1-diyl[(2S)-3-methoxy-3-methyl-1-oxobutane-1,2-diyl]}]biscarbamate]: 1 to 10 nM.

On to `COC(=O)N[C@@H](C(=O)N1CCC[C@H]1C(=O)Nc1ccc(CN(Cc2ccc(NC(=O)[C@@H]3CCCN3C(=O)[C@@H]3CCCO3)cc2)c2ccccc2)cc1)c1ccccc1` [Example 76, methyl {(1R)-2-oxo-1-phenyl-2-[(2S)-2-({4-[(phenyl{4-[({(2S)-1-[(2S)-tetrahydrofuran-2-ylcarbonyl]pyrrolidin-2-yl}carbonyl)amino]benzyl}amino)methyl]phenyl}carbamoyl)pyrrolidin-1-yl]ethyl}carbamate], for which the EC50 was less than 1 nM.

Take `COC(=O)N[C@@H](Cc1ccccc1)C(=O)N1CCC[C@H]1C(=O)Nc1ccc(CN(Cc2ccc(NC(=O)[C@@H]3CCCN3C(=O)[C@H](Cc3ccccc3)NC(=O)OC)cc2)c2ccccc2)cc1` [Example 61, dimethyl [(phenylimino)bis{methanediylbenzene-4,1-diylcarbamoyl(2S)pyrrolidine-2,1-diyl[(2S)-1-oxo-3-phenylpropane-1,2-diyl]}]biscarbamate]: the EC50 was in the range of 1 to 10 nM.

Turning to `COC(=O)N[C@@H](C)C(=O)N1CCC[C@H]1C(=O)Nc1ccc(CN(Cc2ccc(NC(=O)[C@@H]3CCCN3C(=O)[C@H](C)NC(=O)OC)cc2)c2ccc(F)cc2)cc1` [Example 15], the EC50 lay in the range of 1 to 10 nM. As to `CCN(CC)[C@@H](C(=O)N1CCC[C@H]1C(=O)Nc1ccc(CN(Cc2ccc(NC(=O)[C@@H]3CCCN3C(=O)[C@H](NC(=O)OC)c3ccccc3)cc2)c2ccccc2)cc1)c1ccccc1` [Example 75, methyl [(1R)-2-{(2S)-2-[(4-{[{-4-[({(2S)-1-[(2R)-2-(diethylamino)-2-phenylacetyl]pyrrolidin-2-yl}carbonyl)amino]benzyl}(phenyl)amino]methyl}phenyl)carbamoyl]pyrrolidin-1-yl}-2-oxo-1-phenylethyl]carbamate], the EC50 was less than 1 nM.

As to `CN(C)[C@@H](C(=O)N1CCC[C@H]1C(=O)Nc1ccc(CN(Cc2ccc(NC(=O)[C@@H]3CCCN3C(=O)[C@@H](c3ccccc3)N(C)C)cc2)c2ccccc2)cc1)c1ccccc1` [Example 2], the concentration giving a half-maximal response (EC50) is less than 1 nM. In the case of `CCN(CC)[C@@H](C(=O)N1CCC[C@H]1C(=O)Nc1ccc(CN(Cc2ccc(NC(=O)[C@@H]3CCCN3C(=O)[C@@H](c3ccccc3)N3CCCC3)cc2)c2ccc(F)cc2)cc1)c1ccccc1` [Example 83, (2S)-1-[(2R)-2-(diethylamino)-2-phenylacetyl]-N-(4-{[(4-fluorophenyl){4-[({(2S)-1-[(2R)-2-phenyl-2-pyrrolidin-1-ylacetyl]pyrrolidin-2-yl}carbonyl)amino]benzyl}amino]methyl}phenyl)pyrrolidine-2-carboxamide], the EC50 was less than 1 nM. Then `COC(=O)N[C@H](C(=O)N1CCC[C@H]1C(=O)Nc1ccc(CN(Cc2ccc(NC(=O)[C@@H]3CCCN3C(=O)[C@H](NC(=O)OC)c3ccccc3)cc2)c2ccccc2)cc1)C(C)(C)C` [Example 69], with less than 1 nM; and `CCN(CC)[C@@H](C(=O)N1CCC[C@H]1C(=O)Nc1ccc(CN(Cc2ccc(NC(=O)[C@@H]3CCCN3C(=O)[C@@H](c3ccccc3)N(CC)CC)cc2)c2ccc(F)c(F)c2)cc1)c1ccccc1` [Example 89, (2S,2′S)-N,N′-{[(3,4-difluorophenyl)imino]bis(methanediylbenzene-4,1-diyl)}bis{1-[(2R)-2-(diethylamino)-2-phenylacetyl]pyrrolidine-2-carboxamide}], with less than 1 nM.
